In publication PMC5413024, “Mechanistic insights into the more potent effect of KP-54 compared to KP-10 in vivo” (PLoS ONE, 2017):
In brackets after ≈: the same amount, converted by molar mass. Ends that are not written are not given here.

Assays:
[1] = from the product data sheets; ref product data sheets (manufacturer); cited from earlier work
Description: KP-10 [human Metastin (45–54) amide, M-2816] was purchased from Sigma-Aldrich. KP-10 consists of the C-terminal 10-amino acids of KP-54. Human KP-54 was synthesized by the Advanced Biotechnology Centre, Imperial College, London, UK. BSA-FITC was purchased from Sigma (A9771). From the product data sheets, the solubility of KP-10 and KP-54 in water is 1mg/ml. We prepared stock solutions in sterile PBS at 100 μM, which is almost ten times lower than the solubility limit set by the manufacturer. The 100 μM stock solution was diluted in sterile PBS and 100 μl of the working solution was injected to ...

[2] = men / humans; ref [5], [30] (KP-10), ref [5] (KP-54); cited from earlier work
Text: It should be noted, however that the RIA used to measure KP-54 may also detect shorter breakdown products of this protein that might be biologically inert. It is likely that the lack of GnRH neuronal activation and sustained LH release by KP-10 is mainly due to its instability. It is noteworthy that we failed ...

[3] = Study 4: pharmacokinetics of plasma kisspeptin after i.p. injection (radioimmunoassay); type: in vivo, mouse; conditions: male mice
Description: Male mice received a single i.p. injection of 1 nmol KP-10 or 1 nmol KP-54. 100 μl of blood was collected from the lateral tail vein from groups of mice (n = 4) for each time point (0, 1 min, 2 min, 5 min, 10 min, 30 min, 60 min and 120 min). Terminal bleeds were collected from the vena cava. Blood was mixed with 5 μl EDTA, centrifuged at 10,000 x g for 10 min at 4°C to obtain the plasma fraction, and stored at -20°C until assayed. Kisspeptin concentrations were measured using an established in house competitive radioimmunoassay (RIA, [5]. Briefly, this RIA uses a sheep polyclonal antibody (GQ2), raised against human KP-54, which cross-reacts with human KP-54, KP-14 and KP-10.
3–5 month old wild-type (129S6/SvEv) male mice were used in this study. The mice were housed in open cages on a 12 hour light cycle (lights on at 0700 h) at a controlled temperature (22°C), and were provided with food and water ad libitum. All experiments were performed under the authority of a United Kingdom Home Office Project License and were approved by a Cambridge Animal Ethics Committee.

[4] = tested on: LH secretion; test: S1 Fig: plasma LH after i.p. injection of penetratin-extended Kp10; type: in vivo, mouse; conditions: single 100 μl i.p. injection, blood at 10 min and 2 hrs, n = 2 per treatment
Description: Supplementary file pone.0176821.s001.tif: S1 Fig Kisspeptin-penetratin treatment. This experiment aimed at facilitating Kp10 to cross the blood-brain-barrier by adding a penetratin extension to the […] end of Kp10, thereby putatively provided with higher permeability. Two penetratin variants were tested: the pen(ala2) residue has a lower protein transduction domain activity than pen-Kp10. […] Each animal received a single 100 μl i.p. injection of either PBS, Kp10, Kp54, Pen-Kp10 or Pen(ala2)-Kp10. Blood samples were collected at 10 min (from tail vein) and 2 hrs (from vena cava upon sacrifice) time points after administration. […] (TIF) Click here for additional data file.

Compound | solubility in water [1] [µg/mL] | half-life in the blood stream in humans [2] [min] | peak (maximum) plasma kisspeptin level ([3]; 1 nmol i.p., RIA (GQ2 antibody), mean ± SEM, n = 4 per time point) [pmol/L] | plasma kisspeptin level by 10 min post-injection ([3]; 1 nmol i.p., RIA, n = 4) | time of peak plasma kisspeptin level post-injection ([3]; 1 nmol i.p., RIA, n = 4 per time point) [min] | plasma half-life ([3]; 1 nmol i.p., estimated from RIA plasma levels, RIA recognises all forms of Kp, may include breakdown products) | fraction of the injected peptide entering the bloodstream after intraperitoneal injection ([3]; 1 nmol i.p., assuming a total blood volume of approximately 5 ml) | peak level in the bloodstream, times lower than that of KP-54 ([3]; equimolar 1 nmole i.p., 250 pmol/L vs 12000 pmol/L) [times] | effect of penetratin extension on Kp10-induced LH secretion [4]
CC(C)C[C@H](NC(=O)CNC(=O)[C@H](Cc1ccccc1)NC(=O)[C@H](CO)NC(=O)[C@H](CC(N)=O)NC(=O)[C@H](Cc1c[nH]c2ccccc12)NC(=O)[C@H](CC(N)=O)NC(=O)[C@@H](N)Cc1ccc(O)cc1)C(=O)N[C@@H](CCCNC(=N)N)C(=O)N[C@@H](Cc1ccccc1)C(N)=O [KP-10, human Metastin (45–54) amide] | 1000 (≈ 768 µM) | 3.8 | 248 ± 9 | undetectable | 2 | about 4 min | around 0.13% | ~50 | –
NRRMAWAKYYNWNSFGLRF-NH2 [Pen(ala2)-Kp10] | – | – | – | – | – | – | – | – | does not improve the Kp10-induced LH secretion
NRRMKWKKYYNWNSFGLRF-NH2 [Pen-Kp10] | – | – | – | – | – | – | – | – | does not improve the Kp10-induced LH secretion
